This note sets out measurements from PubChem BioAssay AID328 (DTP/NCI, 2004).

This test deals with BDF1 mice, P388 leukemia ip, median survival T/C. Nature of the test: NCI In Vivo Anticancer Drug Screen. Data for tumor model P388 Leukemia (intraperitoneal) in B6D2F1 (BDF1) mice. As to conditions: endpoint: median survival time, higher = longer survival. The gist of the method:
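Antitumour effect was judged in vivo: survival in drug-treated mice, normalised to that of vehicle-dosed controls, gives the reported T/C.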

Setting [1] is: dose: 100.0 mg/kg/injection, schedule: Q01DX009 (ip), vehicle: Klucel (hydroxypropylcellulose) (HPC).
The mark [2] stands for this setting: dose: 200.0 mg/kg/injection, schedule: Q01DX009 (ip), vehicle: Klucel (hydroxypropylcellulose) (HPC).
Setting [3] is: dose: 50.0 mg/kg/injection, schedule: Q01DX009 (ip), vehicle: saline with Tween-80.
[4] abbreviates: dose: 100.0 mg/kg/injection, schedule: Q01DX009 (ip), vehicle: saline with Tween-80.
[5] abbreviates: dose: 100.0 mg/kg/injection, schedule: Q04DX003 (ip), vehicle: saline with Tween-80.
The mark [6] stands for this setting: dose: 8.0 mg/kg/injection, schedule: Q01DX009 (ip), vehicle: saline.
Where [7] appears, read: dose: 12.5 mg/kg/injection, schedule: Q04DX003 (ip), vehicle: saline.
Setting [8] is: dose: 25.0 mg/kg/injection, schedule: Q01DX009 (ip), vehicle: saline.

Values joined by “and” are separate entries in the source; they are usually repeats but may differ in a detail not shown here. Identical values can stand only once. Toxic doses and inconclusive results are not listed.

Take `NC(CSC(c1ccccc1)(c1ccccc1)c1ccc(F)cc1)C(=O)O` (stereo not drawn): the T/C reads like this: (dose: 2.9 mg/kg/injection, schedule: Q01DX009 (ip), vehicle: Klucel (hydroxypropylcellulose) (HPC)) 107 % of control; (dose: 4.3 mg/kg/injection, schedule: Q01DX009 (ip), vehicle: Klucel (hydroxypropylcellulose) (HPC)) 123 % of control; (dose: 12.5 mg/kg/injection, schedule: Q01DX009 (ip), vehicle: Klucel (hydroxypropylcellulose) (HPC)) 170 % of control; (dose: 23.0 mg/kg/injection, schedule: Q01DX009 (ip), vehicle: Klucel (hydroxypropylcellulose) (HPC)) 216 % of control; (dose: 25.0 mg/kg/injection, schedule: Q01DX009 (ip), vehicle: Klucel (hydroxypropylcellulose) (HPC)) 227 % of control; (dose: 25.0 mg/kg/injection, schedule: Q04DX003 (ip), vehicle: Klucel (hydroxypropylcellulose) (HPC)) 170 % of control. Further, the T/C by setting is: (dose: 35.0 mg/kg/injection, schedule: Q01DX009 (ip), vehicle: Klucel (hydroxypropylcellulose) (HPC)) 222 % of control; (dose: 50.0 mg/kg/injection, schedule: Q01DX009 (ip), vehicle: Klucel (hydroxypropylcellulose) (HPC)) 255 % of control and 104 % of control and 209 % of control; (dose: 50.0 mg/kg/injection, schedule: Q04DX003 (ip), vehicle: Klucel (hydroxypropylcellulose) (HPC)) 180 % of control; (dose: 75.0 mg/kg/injection, schedule: Q01DX009 (ip), vehicle: Klucel (hydroxypropylcellulose) (HPC)) 90 % of control; under setting [1], 194 % of control; (dose: 100.0 mg/kg/injection, schedule: Q04DX003 (ip), vehicle: Klucel (hydroxypropylcellulose) (HPC)) 175 % of control and 185 % of control. Moreover, the T/C reads like this: under setting [2], 100 % of control; (dose: 200.0 mg/kg/injection, schedule: Q04DX003 (ip), vehicle: Klucel (hydroxypropylcellulose) (HPC)) 285 % of control and 205 % of control.
As for `CS(=O)/C=C(\c1ccccc1)c1cccs1` (stereo not drawn), the T/C runs as follows: under setting [3], 96 % of control; under setting [4], 100 % of control.
As for `CC1(NC(=O)N(CCCl)N=O)CCCC1`, the T/C is 272 % of control under setting [5] and 90 % of control (dose: 200.0 mg/kg/injection, schedule: Q04DX003 (ip), vehicle: saline with Tween-80).
For `O=[N+]([O-])c1ccc(Oc2cc(Cl)c(Cl)cc2Cl)c([N+](=O)[O-])c1`, the T/C was 90 % of control (dose: 200.0 mg/kg/injection, schedule: Q01DX009 (ip), vehicle: saline sonified) and 90 % of control (dose: 400.0 mg/kg/injection, schedule: Q01DX009 (ip), vehicle: saline sonified).
For `O=C(Nc1ccc(C2=NCCCN2)cc1)c1ccc(C(=O)Nc2ccc(C3=NCCCN3)cc2)nc1`, the T/C is 92 % of control (dose: 0.85 mg/kg/injection, schedule: Q01DX009 (ip), vehicle: saline); 103 % of control (dose: 1.3 mg/kg/injection, schedule: Q01DX009 (ip), vehicle: saline); 155 % of control (dose: 3.0 mg/kg/injection, schedule: Q01DX009 (ip), vehicle: saline); 175 % of control (dose: 5.0 mg/kg/injection, schedule: Q01DX009 (ip), vehicle: saline); 195 % of control under setting [6]; 122 % of control (dose: 10.0 mg/kg/injection, schedule: Q01DX009 (ip), vehicle: saline with Tween-80). In addition, the T/C was 153 % of control (dose: 12.0 mg/kg/injection, schedule: Q01DX009 (ip), vehicle: saline); 115 % of control under setting [7]; 118 % of control (dose: 16.5 mg/kg/injection, schedule: Q04DX003 (ip), vehicle: saline); 226 % of control (dose: 18.0 mg/kg/injection, schedule: Q01DX009 (ip), vehicle: saline); 196 % of control under setting [8].
As for `CN(C)CC(=O)Nc1nc(-c2ccc(Cl)cc2)cs1`, the T/C (dose: 50.0 mg/kg/injection, schedule: Q01DX005 (ip), vehicle: saline with Tween-80) is 101 % of control; the T/C (dose: 100.0 mg/kg/injection, schedule: Q01DX005 (ip), vehicle: saline with Tween-80) is 92 % of control; the T/C (dose: 200.0 mg/kg/injection, schedule: Q01DX005 (ip), vehicle: saline with Tween-80) was 99 % of control.
Consider `O=C(COc1ccc([N+](=O)[O-])cc1)Nc1cccnc1`, for which the T/C was 100 % of control under setting [5] and 100 % of control (dose: 400.0 mg/kg/injection, schedule: Q04DX003 (ip), vehicle: saline with Tween-80).
Consider `Cc1nc(Cl)c2c(n1)Oc1nc(C)nc(Cl)c1C2c1ccc(Cl)cc1`, for which the T/C reads like this: (dose: 100.0 mg/kg/injection, schedule: Q01DX001 (ip), vehicle: Klucel (hydroxypropylcellulose) (HPC)) 88 % of control and 100 % of control; (dose: 200.0 mg/kg/injection, schedule: Q01DX001 (ip), vehicle: Klucel (hydroxypropylcellulose) (HPC)) 95 % of control; (dose: 400.0 mg/kg/injection, schedule: Q01DX001 (ip), vehicle: Klucel (hydroxypropylcellulose) (HPC)) 88 % of control and 90 % of control.
For the compound `N.N.N.NC(Cc1cnc[nH]1)C(=O)[O-].O=[N+]([O-])[O-].[Co+3]` (stereo not drawn), the T/C is, setting by setting: (dose: 2.0 mg/kg/injection, schedule: Q01DX009 (ip), vehicle: saline) 89 % of control; (dose: 4.0 mg/kg/injection, schedule: Q01DX009 (ip), vehicle: saline) 95 % of control and 110 % of control and 113 % of control; under setting [6], 100 % of control and 110 % of control; (dose: 20.0 mg/kg/injection, schedule: Q01DX009 (ip), vehicle: saline) 120 % of control; under setting [8], 90 % of control.
Take `OCCN(CCO)C(CO)(CO)CO`: the T/C was 100 % of control (dose: 50.0 mg/kg/injection, schedule: Q01DX005 (ip), vehicle: saline); 98 % of control (dose: 100.0 mg/kg/injection, schedule: Q01DX005 (ip), vehicle: saline); 104 % of control (dose: 200.0 mg/kg/injection, schedule: Q01DX005 (ip), vehicle: saline).
Take `Oc1ccc(F)c2cccnc12`: the T/C is, setting by setting: (dose: 12.5 mg/kg/injection, schedule: Q01DX010 (ip), vehicle: carboxymethylcellulose (CMC)) 100 % of control; (dose: 25.0 mg/kg/injection, schedule: Q01DX010 (ip), vehicle: carboxymethylcellulose (CMC)) 105 % of control; (dose: 50.0 mg/kg/injection, schedule: Q01DX010 (ip), vehicle: carboxymethylcellulose (CMC)) 100 % of control.
In the case of `CC1=C(Br)C(=O)C(c2c(C)cc(C)cc2C)=C(Br)C1=O`, the T/C (dose: 6.25 mg/kg/injection, schedule: Q01DX009 (ip), vehicle: saline) is 86 % of control; the T/C (dose: 12.5 mg/kg/injection, schedule: Q01DX009 (ip), vehicle: saline) was 93 % of control; the T/C under setting [7] was 104 % of control; the T/C (dose: 25.0 mg/kg/injection, schedule: Q04DX003 (ip), vehicle: saline) was 95 % of control; the T/C (dose: 50.0 mg/kg/injection, schedule: Q04DX003 (ip), vehicle: saline) was 105 % of control; the T/C (dose: 100.0 mg/kg/injection, schedule: Q04DX003 (ip), vehicle: saline) was 97 % of control. Moreover, the T/C (dose: 200.0 mg/kg/injection, schedule: Q04DX003 (ip), vehicle: saline) is 95 % of control.
On to `CN(C)c1ccc(/C=C/c2ccnc3cc(Cl)ccc23)cc1`, for which the T/C runs as follows: under setting [3], 118 % of control; under setting [4], 100 % of control; (dose: 200.0 mg/kg/injection, schedule: Q01DX009 (ip), vehicle: saline with Tween-80) 93 % of control.
With `O=[N+]([O-])c1ccccc1N=N/C(Cc1ccccc1)=N\Nc1ccccc1`, the T/C under setting [1] is 120 % of control and the T/C under setting [2] was 115 % of control.
Regarding `CCCC1CC[N-]CC1.CCCC1CC[N-]CC1.[Cl][Pd][Cl]`, the T/C was 95 % of control (dose: 12.5 mg/kg/injection, schedule: Q04DX003 (ip), vehicle: water); 114 % of control (dose: 25.0 mg/kg/injection, schedule: Q01DX009 (ip), vehicle: water); 114 % of control (dose: 50.0 mg/kg/injection, schedule: Q01DX009 (ip), vehicle: water); 90 % of control and 112 % of control and 120 % of control (dose: 100.0 mg/kg/injection, schedule: Q04DX003 (ip), vehicle: water); 95 % of control and 99 % of control and 120 % of control (dose: 200.0 mg/kg/injection, schedule: Q04DX003 (ip), vehicle: water); 96 % of control (dose: 300.0 mg/kg/injection, schedule: Q04DX003 (ip), vehicle: water).
